Measured values taken from the supplement of paper PMC10307832.

Key:
Test in all cases: relative viability (nuclei count vs DMSO), 5 days (fraction); higher = more cells survive
[1] = compound: CN[C@@H]1C[C@H]2O[C@@](C)([C@@H]1OC)n1c3ccccc3c3c4c(c5c6ccccc6n2c5c31)C(=O)NC4 [Staurosporine] + CS(=O)(=O)CCNCc1ccc(-c2ccc3ncnc(Nc4ccc(OCc5cccc(F)c5)c(Cl)c4)c3c2)o1 [Lapatinib] (partner 2 µM)
How it was run: (§1)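 Nuclei were stained with Hoechst during a one-step fixation (final 0.05% Triton X-100, 1% formaldehyde, 1 ug/ml Hoechst) carried out 5 days after dosing, then counted on 4× images. The cells, lung cancer lines in 1536-well plates, had been dosed by pin tool the day after seeding with one drug alone or a fixed anchor-drug dose plus five library-drug doses (not always all listed) in √10 steps. Relative viability is the nuclei count in treated wells divided by that in vehicle wells, and each value is the median of duplicate plates.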

Staurosporine + Olaparib = compound: CN[C@@H]1C[C@H]2O[C@@](C)([C@@H]1OC)n1c3ccccc3c3c4c(c5c6ccccc6n2c5c31)C(=O)NC4 [Staurosporine] + O=C(c1cc(Cc2n[nH]c(=O)c3ccccc23)ccc1F)N1CCN(C(=O)C2CC2)CC1 [Olaparib] (partner 8 µM)
How it was run: as §1

Sulindac + Pictilisib = compound: CC1=C(CC(=O)O)c2cc(F)ccc2/C1=C\c1ccc([S+](C)[O-])cc1 [Sulindac] + CS(=O)(=O)N1CCN(Cc2cc3nc(-c4cccc5[nH]ncc45)nc(N4CCOCC4)c3s2)CC1 [Pictilisib] (partner 1 µM)
How it was run: as §1

Sulindac + Palbociclib = compound: CC1=C(CC(=O)O)c2cc(F)ccc2/C1=C\c1ccc([S+](C)[O-])cc1 [Sulindac] + CC(=O)c1c(C)c2cnc(Nc3ccc(N4CCNCC4)cn3)nc2n(C2CCCC2)c1=O [Palbociclib] (partner 0.5 µM)
How it was run: as §1

Cell Line	relative viability ([1]; first compound 0.005 µM)	relative viability ([1]; first compound 0.05 µM)	relative viability ([1]; first compound 0.1581 µM)	relative viability ([1]; first compound 0.5 µM)	relative viability (Staurosporine + Olaparib; first compound 0.005 µM)	relative viability (Staurosporine + Olaparib; first compound 0.01581 µM)	relative viability (Staurosporine + Olaparib; first compound 0.05 µM)	relative viability (Staurosporine + Olaparib; first compound 0.1581 µM)	relative viability (Staurosporine + Olaparib; first compound 0.5 µM)	relative viability (Sulindac + Pictilisib; first compound 0.08 µM)	relative viability (Sulindac + Pictilisib; first compound 0.253 µM)	relative viability (Sulindac + Pictilisib; first compound 0.8 µM)	relative viability (Sulindac + Pictilisib; first compound 2.53 µM)	relative viability (Sulindac + Pictilisib; first compound 8 µM)	relative viability (Sulindac + Palbociclib; first compound 0.08 µM)	relative viability (Sulindac + Palbociclib; first compound 0.253 µM)	relative viability (Sulindac + Palbociclib; first compound 0.8 µM)	relative viability (Sulindac + Palbociclib; first compound 2.53 µM)	relative viability (Sulindac + Palbociclib; first compound 8 µM)	relative viability ([1]; first compound 0.01581 µM)
PC-3 [JPC-3]	0.46	0.429	0.287	0.307	1.03	0.603	0.569	0.385	0.332	0.886	0.81	0.55	0.753	0.857	0.477	0.521	0.596	0.502	0.545	–
NCI-H1944	0.849	0.566	0.435	0.304	0.38	0.226	0.284	0.273	0.261	0.345	0.347	0.325	0.342	0.388	0.363	0.333	0.338	0.351	0.374	–
NCI-H2085	0.65	0.463	0.351	0.243	0.694	0.471	0.556	0.398	0.344	0.459	0.415	0.433	0.377	0.447	0.406	0.487	0.497	0.508	0.429	0.391
NCI-H1792	0.992	0.503	0.199	0.185	0.147	0.0705	0.0822	0.097	0.0652	0.286	0.294	–	0.231	0.313	0.646	0.734	–	0.601	0.635	0.814
NCI-H2347	0.457	0.352	0.319	0.407	0.481	0.319	0.39	0.371	0.292	0.298	0.637	0.503	0.6	0.509	0.42	0.459	0.453	0.379	0.461	0.348
ABC-1	0.953	0.608	0.339	0.502	0.429	0.289	0.564	0.211	0.213	0.987	0.849	0.539	0.542	0.979	0.73	0.946	0.514	0.475	0.639	0.799
201T	1.04	0.948	0.895	0.637	0.834	–	0.749	0.581	0.537	0.737	0.665	0.627	0.678	0.698	0.338	0.359	0.386	0.355	0.38	0.957
NCI-H1755	0.556	0.207	0.142	0.142	0.731	0.421	0.25	0.236	0.234	0.434	0.419	0.304	0.362	0.507	0.479	0.48	0.517	0.495	0.504	0.33
NCI-H647	0.603	0.253	0.0661	0.0597	0.275	0.199	0.0866	0.0394	0.0357	0.49	0.422	0.435	0.419	0.735	0.462	0.469	0.339	0.431	0.439	0.262
NCI-H1650	0.575	0.336	0.151	0.117	0.703	0.598	0.385	0.306	0.0918	0.64	0.676	0.413	0.555	0.719	0.271	0.331	0.341	0.346	0.315	0.165
NCI-H1355	0.96	0.272	0.188	0.193	0.751	0.289	0.253	0.185	0.173	0.458	0.407	0.36	0.39	0.448	0.335	0.43	0.327	0.395	0.379	0.557
NCI-H1975	0.572	0.227	0.13	0.0954	0.306	0.225	0.165	0.107	0.104	0.301	0.28	–	0.282	0.286	0.621	0.638	0.451	0.546	0.619	0.232
BEN	0.656	0.381	0.198	0.207	0.976	0.799	0.641	0.514	0.362	0.599	0.56	0.443	0.673	0.667	0.415	0.495	0.506	0.483	0.503	0.449
NCI-H322M	0.746	0.484	0.402	0.278	0.831	0.691	0.556	0.411	0.345	0.579	0.508	0.419	0.545	0.539	0.436	0.462	0.489	0.474	0.46	0.438
SK-MES-1	0.444	0.311	0.205	0.185	0.299	0.192	0.158	0.132	0.156	0.368	0.427	0.323	0.362	0.459	0.313	0.364	0.353	0.373	0.315	0.31
HOP-62	1.27	0.103	0.0855	0.0849	0.441	0.157	0.0992	0.143	0.104	1.01	0.864	0.831	0.758	0.978	0.495	0.553	0.469	0.525	0.541	0.293

Cell Line	relative viability ([1]; first compound 0.005 µM)	relative viability ([1]; first compound 0.05 µM)	relative viability ([1]; first compound 0.1581 µM)	relative viability ([1]; first compound 0.5 µM)	relative viability (Staurosporine + Olaparib; first compound 0.005 µM)	relative viability (Staurosporine + Olaparib; first compound 0.01581 µM)	relative viability (Staurosporine + Olaparib; first compound 0.05 µM)	relative viability (Staurosporine + Olaparib; first compound 0.1581 µM)	relative viability (Staurosporine + Olaparib; first compound 0.5 µM)	relative viability (Sulindac + Pictilisib; first compound 0.08 µM)	relative viability (Sulindac + Pictilisib; first compound 0.253 µM)	relative viability (Sulindac + Pictilisib; first compound 0.8 µM)	relative viability (Sulindac + Pictilisib; first compound 2.53 µM)	relative viability (Sulindac + Pictilisib; first compound 8 µM)	relative viability (Sulindac + Palbociclib; first compound 0.08 µM)	relative viability (Sulindac + Palbociclib; first compound 0.253 µM)	relative viability (Sulindac + Palbociclib; first compound 0.8 µM)	relative viability (Sulindac + Palbociclib; first compound 2.53 µM)	relative viability (Sulindac + Palbociclib; first compound 8 µM)	relative viability ([1]; first compound 0.01581 µM)
HCC-366	1.22	0.278	0.0407	0.0187	0.247	–	0.12	0.0287	0.0185	0.149	0.13	–	0.0966	0.0889	0.442	0.36	–	0.301	0.555	–
NCI-H2405	0.395	0.113	0.0819	0.0797	0.204	0.179	0.14	0.122	0.0873	0.548	0.459	0.438	0.407	0.603	0.531	0.525	0.5	0.509	0.593	0.148
LXF-289	0.725	0.389	0.109	0.0903	1.1	0.193	0.395	0.164	0.227	0.955	0.796	0.769	0.823	0.848	0.685	0.672	0.556	0.659	0.624	–
NCI-H1793	0.829	0.527	0.216	0.18	0.815	–	0.3	0.15	0.14	0.275	0.329	0.271	0.351	0.344	0.301	0.375	–	0.34	0.364	0.281
NCI-H1734	0.958	0.31	0.121	0.136	0.566	0.354	0.257	0.194	0.0713	0.466	0.498	0.413	0.48	0.515	0.298	0.345	0.311	0.32	0.402	0.322
LU99A	0.669	0.282	0.171	0.133	0.228	0.164	0.141	0.138	0.121	0.33	0.31	0.301	0.267	0.344	0.439	0.409	0.389	0.376	0.417	0.313
RERF-LC-KJ	0.878	0.734	0.424	0.245	0.726	0.537	0.304	0.228	0.188	0.57	0.626	–	0.473	0.579	1.1	1.11	1.04	1.12	1.07	0.821
NCI-H2087	0.755	0.427	0.206	0.105	0.48	0.414	0.217	0.0849	0.0689	0.951	0.783	0.622	0.916	0.984	0.224	0.273	0.228	0.239	0.224	0.548
NCI-H2170	0.289	0.258	0.197	0.193	0.617	–	0.455	0.223	0.165	0.274	0.288	0.291	0.294	0.322	0.482	0.402	0.413	0.427	0.38	0.236
HCC-78	0.238	0.38	0.263	0.232	0.98	0.638	0.654	0.455	0.417	0.309	0.269	0.207	0.183	0.246	0.481	0.48	0.501	0.444	0.442	0.22
NCI-H1395	0.833	0.487	0.356	0.376	0.443	0.395	0.379	0.328	0.274	0.705	0.603	0.872	0.527	0.879	0.545	0.563	0.708	0.627	0.728	0.551
NCI-H2228	0.88	0.346	0.137	0.115	0.375	0.211	0.18	0.0961	0.0588	0.488	0.407	0.244	0.383	0.603	0.876	0.967	0.487	0.864	0.831	0.49
H3255	0.138	0.124	0.142	0.137	0.447	0.315	0.28	0.24	0.155	0.486	0.463	0.464	0.562	0.524	0.288	0.32	0.391	0.311	0.326	0.0852
HCC-15	0.892	0.595	0.365	0.151	0.613	–	0.532	0.286	0.205	0.861	0.817	0.526	0.735	0.814	0.901	0.818	0.543	0.736	0.721	–
NCI-H838	0.25	0.211	0.134	0.103	0.24	0.175	0.154	0.122	0.0873	0.519	0.466	0.377	0.426	0.603	0.262	0.234	0.195	0.226	0.223	0.164
NCI-H2023	0.509	0.18	0.0948	0.0518	0.265	0.192	0.117	0.0758	0.0558	0.27	0.213	0.249	0.222	0.234	0.387	0.429	0.362	0.415	0.454	0.11
